Experimental data taken from BindingDB's records for patent US12071420 (Hoffmann-La Roche, 2024).

Molecular target: Cannabinoid receptor 2 (Homo sapiens, UniProt P34972)
Assay: Radioligand Binding Assay
Experimental: The affinity of the compounds of the invention for cannabinoid CB1 receptors was determined using recommended amounts of membrane preparations (PerkinElmer) of human embryonic kidney (HEK) cells expressing the human CNR1 or CNR2 receptors in conjunction with 1.5 or 2.6 nM [3H]-CP-55,940 (Perkin Elmer) as radioligand, respectively. Binding was performed in binding buffer (50 mM Tris, 5 mM MgCl2, 2.5 mM EDTA, and 0.5% (wt/vol) fatty acid free BSA, pH 7.4 for CB1 receptor and 50 mM Tris, 5 mM MgCl2, 2.5 mM EGTA, and 0.1% (wt/vol) fatty acid free BSA, pH 7.4 for CB2 receptor) in a total volume of 0.2 ml for 1 h at 30° C. shaking. The reaction was terminated by rapid filtration through microfiltration plates coated with 0.5% polyethylenimine (UniFilter GF/B filter plate; Packard). Bound radioactivity was analyzed for Ki using nonlinear regression analysis (Activity Base, ID Business Solution, Limited), with the Kd values for [3H]CP55,940 determined from saturation experiments. The compounds of formula (I) show an excellent affinity for the CB2 receptor.

Cannabinoid receptor 2, sequence (P34972 whole entry): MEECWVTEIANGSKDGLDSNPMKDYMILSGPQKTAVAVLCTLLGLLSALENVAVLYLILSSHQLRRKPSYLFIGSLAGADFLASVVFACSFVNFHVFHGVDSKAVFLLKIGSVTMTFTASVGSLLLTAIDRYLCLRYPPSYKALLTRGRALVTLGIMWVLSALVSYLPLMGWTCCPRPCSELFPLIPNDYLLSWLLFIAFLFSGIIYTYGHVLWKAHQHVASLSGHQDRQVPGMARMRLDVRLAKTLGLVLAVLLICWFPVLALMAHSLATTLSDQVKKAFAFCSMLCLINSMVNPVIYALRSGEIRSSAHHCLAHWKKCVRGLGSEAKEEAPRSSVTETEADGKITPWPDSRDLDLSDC

With COC1CN(c2ccc(C(=O)N[C@H](COCF)CC(C)C)nc2OCC2CC2)C1 [US12071420, Example 25] the Ki was 14 nM.
